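Exposure lasted 48 hours, with cells grown in 96-well plates and compounds tested at five concentrations. The concentration for 50% growth inhibition is given as GI50.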 Active and inactive are the calls of the source. No stated cut-off is given here; in the data, active = GI50 up to about 1.1 µM and inactive = higher.
How the values were obtained:
Assay in all cases: DTP human tumour cell line panel, 48 h
[1] = system: Hs-578T
[2] = system: MDA-N
[3] = system: DU-145
[4] = system: KM12
[5] = system: NCI-H23
[6] = system: MDA-MB-231
[7] = system: SK-MEL-5
[8] = system: SK-OV-3
[9] = system: SNB-19
[10] = system: M14
[11] = system: NCI-H460
[12] = system: T47D
[13] = system: SF-268
[14] = system: COLO 205
[15] = system: PC-3
[16] = system: IGROV-1
[17] = system: UACC-62
[18] = system: LOX IMVI
[19] = system: SK-MEL-2
[20] = system: Malme-3M

Structure (SMILES) | GI50 [1] | GI50 [2] | GI50 [3] | GI50 [4] | GI50 [5] | GI50 [6] | GI50 [7] | GI50 [8] | GI50 [9] | GI50 [10] | GI50 [11] | GI50 [12] | GI50 [13] | GI50 [14] | GI50 [15] | GI50 [16] | GI50 [17] | GI50 [18] | GI50 [19] | GI50 [20]
O=[N+]([O-])c1ccc(Cl)cc1N/N=C/c1ccnc2ccccc12 | 52.4 µM (inactive) | > 100 µM (inactive) | > 100 µM (inactive) | > 100 µM (inactive) | > 100 µM (inactive) | > 100 µM (inactive) | > 100 µM (inactive) | > 100 µM (inactive) | > 100 µM (inactive) | > 100 µM (inactive) | > 100 µM (inactive) | > 100 µM (inactive) | > 100 µM (inactive) | > 100 µM (inactive) | > 100 µM (inactive) | > 100 µM (inactive) | > 100 µM (inactive) | – | – | –
O=C(NC1CCN(Cc2ccccc2)CC1)c1cccc(I)c1 | 29 µM (inactive) | – | 72.3 µM (inactive) | 16.5 µM (inactive) | 24 µM (inactive) | 17 µM (inactive) | 16.9 µM (inactive) | 22.2 µM (inactive) | 35 µM (inactive) | 17.2 µM (inactive) | 22 µM (inactive) | 24.1 µM (inactive) | 50.9 µM (inactive) | 17.6 µM (inactive) | 18.5 µM (inactive) | 39 µM (inactive) | 20.5 µM (inactive) | 19.6 µM (inactive) | 18.7 µM (inactive) | 17.1 µM (inactive)
COc1ccc(OC)c([N+](=O)[O-])c1-c1nc2sc(Cl)cn2c1/C=N/N=C(N)N | 19.1 µM (inactive) | – | 21.8 µM (inactive) | 15.4 µM (inactive) | 26.4 µM (inactive) | 15.1 µM (inactive) | 14.4 µM (inactive) | – | 19.4 µM (inactive) | 34.4 µM (inactive) | 20.7 µM (inactive) | 17.8 µM (inactive) | 20.8 µM (inactive) | 15.3 µM (inactive) | 13.8 µM (inactive) | 12.9 µM (inactive) | 13.3 µM (inactive) | 25 µM (inactive) | 18.6 µM (inactive) | 22.5 µM (inactive)
CCNC1=C(NC(=O)CCl)C(=O)c2ccccc2C1=O | 24.2 µM (inactive) | 15.6 µM (inactive) | > 10 µM (inactive) | 17.1 µM (inactive) | 19 µM (inactive) | 21.5 µM (inactive) | 16.7 µM (inactive) | > 10 µM (inactive) | 26.7 µM (inactive) | 20.9 µM (inactive) | 23.7 µM (inactive) | 22.3 µM (inactive) | 18.1 µM (inactive) | > 10 µM (inactive) | 16 µM (inactive) | > 10 µM (inactive) | – | – | – | 19.9 µM (inactive)
CCOc1ccc(NCc2cc(OC)c(OC)c(OC)c2)cc1 | 1.38 µM (inactive) | – | 2.57 µM (inactive) | 0.276 µM (active) | 1.24 µM (inactive) | 2.5 µM (inactive) | 0.506 µM (active) | 0.706 µM (active) | 1.95 µM (inactive) | 0.371 µM (active) | 0.499 µM (active) | – | 2.29 µM (inactive) | 0.384 µM (active) | 1.5 µM (inactive) | 1.49 µM (inactive) | 0.423 µM (active) | 0.643 µM (active) | – | –
CCOC(=O)/C(C#N)=C/N(CC)/N=C/c1ccccc1 | 54.7 µM (inactive) | > 100 µM (inactive) | > 100 µM (inactive) | > 100 µM (inactive) | > 100 µM (inactive) | > 100 µM (inactive) | > 100 µM (inactive) | > 100 µM (inactive) | > 100 µM (inactive) | > 100 µM (inactive) | > 100 µM (inactive) | > 100 µM (inactive) | > 100 µM (inactive) | > 100 µM (inactive) | > 100 µM (inactive) | > 100 µM (inactive) | > 100 µM (inactive) | – | > 100 µM (inactive) | > 100 µM (inactive)
COc1cccc(CCNc2c(C#N)c3nc4ccccc4n3c3ccccc23)c1 | 0.498 µM (active) | – | 2.29 µM (inactive) | 0.258 µM (active) | 0.741 µM (active) | 2.33 µM (inactive) | 0.186 µM (active) | 1.18 µM (inactive) | 0.787 µM (active) | 4.23 µM (inactive) | 0.378 µM (active) | 2.17 µM (inactive) | 2.06 µM (inactive) | 0.447 µM (active) | 1.11 µM (active) | 0.433 µM (active) | 0.316 µM (active) | 0.63 µM (active) | > 41.6 µM (inactive) | 0.239 µM (active)
COc1cc2c[n+](C)c3c4cc(OC)c(OCc5ccccc5)cc4c(OCc4ccccc4)cc3c2cc1OC | – | 1.23 µM (inactive) | 11.5 µM (inactive) | 10.5 µM (inactive) | 5.58 µM (inactive) | 5.02 µM (inactive) | 2.08 µM (inactive) | 5.68 µM (inactive) | 0.923 µM (active) | 9.66 µM (inactive) | 33 µM (inactive) | 5.22 µM (inactive) | 3.44 µM (inactive) | 0.429 µM (active) | 2.5 µM (inactive) | 1.69 µM (inactive) | 2.6 µM (inactive) | 5.3 µM (inactive) | 2.1 µM (inactive) | 2.22 µM (inactive)
CC(C)(C)C1=CC(=C2C=Cc3cc(O)ccc3O2)C=C(C(C)(C)C)C1=O | 2.27 µM (inactive) | – | 1.45 µM (inactive) | 1.58 µM (inactive) | 1.79 µM (inactive) | 1.7 µM (inactive) | 1.58 µM (inactive) | 2.21 µM (inactive) | 1.77 µM (inactive) | 1.69 µM (inactive) | 1.34 µM (inactive) | 0.627 µM (active) | 1.81 µM (inactive) | 1.72 µM (inactive) | 1.57 µM (inactive) | 1.59 µM (inactive) | 1.38 µM (inactive) | 1.56 µM (inactive) | 1.63 µM (inactive) | 1.59 µM (inactive)
COc1ccc(/C=C2\N=C(SC)N(CN3CCCCC3)C2=O)cc1 | > 100 µM (inactive) | > 100 µM (inactive) | > 100 µM (inactive) | > 100 µM (inactive) | > 100 µM (inactive) | > 100 µM (inactive) | > 100 µM (inactive) | > 100 µM (inactive) | > 100 µM (inactive) | > 100 µM (inactive) | – | – | > 100 µM (inactive) | > 100 µM (inactive) | > 100 µM (inactive) | > 100 µM (inactive) | > 100 µM (inactive) | > 100 µM (inactive) | > 100 µM (inactive) | > 100 µM (inactive)
O=[N+]([O-])/C(C(Cl)=C(Cl)Cl)=C(\Nc1cccc2ccccc12)Sc1ccccc1 | 12.8 µM (inactive) | 16.5 µM (inactive) | 13.2 µM (inactive) | 13.2 µM (inactive) | 16 µM (inactive) | 11.3 µM (inactive) | – | 26.1 µM (inactive) | 18.8 µM (inactive) | 24.9 µM (inactive) | 19.8 µM (inactive) | 19.5 µM (inactive) | 12.9 µM (inactive) | 15.1 µM (inactive) | 13.5 µM (inactive) | – | 10.8 µM (inactive) | – | 14.6 µM (inactive) | 17.5 µM (inactive)
CN1CCN(C(=S)N(C)C(=O)c2ccc(Cl)cc2)CC1 | > 100 µM (inactive) | > 100 µM (inactive) | > 100 µM (inactive) | > 100 µM (inactive) | > 100 µM (inactive) | > 100 µM (inactive) | > 100 µM (inactive) | – | > 100 µM (inactive) | > 100 µM (inactive) | > 100 µM (inactive) | > 100 µM (inactive) | > 100 µM (inactive) | > 100 µM (inactive) | – | > 100 µM (inactive) | > 100 µM (inactive) | > 100 µM (inactive) | > 100 µM (inactive) | > 100 µM (inactive)
C=C1C(C)C2C(Cc3ccccc3)NC(=O)C23C(OC(C)=O)C=CC(C)(O)C(=O)C(C)C/C=C/C3C1O (stereo not drawn) | 0.0652 µM (active) | 15.6 µM (inactive) | 28.2 µM (inactive) | 90.8 µM (inactive) | 12.9 µM (inactive) | 0.151 µM (active) | 0.76 µM (active) | 0.752 µM (active) | 0.217 µM (active) | 7.24 µM (inactive) | 0.258 µM (active) | – | 1.45 µM (inactive) | 0.535 µM (active) | 11.7 µM (inactive) | 0.902 µM (active) | 3.36 µM (inactive) | 0.101 µM (active) | 6.22 µM (inactive) | 30.5 µM (inactive)
CCOC1CC(C)N(C(=O)c2ccccc2)O1 (stereo not drawn) | > 100 µM (inactive) | > 100 µM (inactive) | > 100 µM (inactive) | > 100 µM (inactive) | > 100 µM (inactive) | > 100 µM (inactive) | > 100 µM (inactive) | > 100 µM (inactive) | > 100 µM (inactive) | > 100 µM (inactive) | > 100 µM (inactive) | > 100 µM (inactive) | > 100 µM (inactive) | – | 80.2 µM (inactive) | > 100 µM (inactive) | > 100 µM (inactive) | – | – | > 10 µM (inactive)
COc1cc(S(=O)(=O)Nc2ccc(-c3csc(N4C(=O)C(C)SC4c4cccs4)n3)cc2)ccc1Cl (stereo not drawn) | 6.17 µM (inactive) | – | 20.7 µM (inactive) | 0.931 µM (active) | 39.8 µM (inactive) | – | 41.3 µM (inactive) | 0.481 µM (active) | – | 30.8 µM (inactive) | – | 10.8 µM (inactive) | 22.5 µM (inactive) | 24.9 µM (inactive) | 15.7 µM (inactive) | 29.1 µM (inactive) | 89.3 µM (inactive) | 5.27 µM (inactive) | 6.49 µM (inactive) | 60.5 µM (inactive)
